From ChEMBL document CHEMBL3414572, “Identification of fused 16β,17β-oxazinone-estradiol derivatives as a new family of non-estrogenic 17β-hydroxysteroid dehydrogenase type 1 inhibitors” (Eur J Med Chem, 2015)
Active and inactive are the calls of the source. No cut-off for these calls is given here.

How the values were obtained:
[1] = molecular target: T1, 17-beta-hydroxysteroid dehydrogenase type 1 (Homo sapiens, UniProt P14061); experiment: Inhibition of 17 beta-HSD1 in human T47D cells assessed as inhibition of transformation of [14C]E1 to [14C]E2 after overnight incubation; format: cell-based
T1 sequence (P14061 whole entry): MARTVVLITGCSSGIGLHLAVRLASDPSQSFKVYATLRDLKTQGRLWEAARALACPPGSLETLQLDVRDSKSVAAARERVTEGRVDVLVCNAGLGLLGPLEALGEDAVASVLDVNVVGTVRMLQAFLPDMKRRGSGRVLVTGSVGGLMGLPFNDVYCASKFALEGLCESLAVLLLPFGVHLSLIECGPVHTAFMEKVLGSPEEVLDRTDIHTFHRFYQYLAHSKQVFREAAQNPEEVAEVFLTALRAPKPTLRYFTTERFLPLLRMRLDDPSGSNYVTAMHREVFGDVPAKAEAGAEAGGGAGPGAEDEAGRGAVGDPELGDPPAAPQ

[2] = molecular target: T2, 17-beta-hydroxysteroid dehydrogenase type 1 (Homo sapiens) (UniProt P14061); experiment: Inhibition of 17 beta-HSD1 in human T47D cells assessed as inhibition of transformation of [14C]E1 to [14C]E2 at 10 uM after overnight incubation; format: cell-based
T2 sequence (whole entry): T1 sequence (P14061 whole entry)

[3] = tested on: T47D; experiment: Estrogenic activity in human T47D cells assessed as cell proliferation at 0.5 uM incubated for 7 days with replacement of media in every 2 days by CellTitre-Glo assay; format: functional
[4] = tested on: T47D; experiment: Estrogenic activity in human T47D cells assessed as cell proliferation at 0.1 uM incubated for 7 days with replacement of media in every 2 days by CellTitre-Glo assay; format: functional
[5] = molecular target: T3, Very-long-chain 3-oxoacyl-CoA reductase (Homo sapiens) (UniProt Q53GQ0); experiment: Inhibition of 17 beta-HSD12 (unknown origin) at 10 uM
T3 sequence (whole entry): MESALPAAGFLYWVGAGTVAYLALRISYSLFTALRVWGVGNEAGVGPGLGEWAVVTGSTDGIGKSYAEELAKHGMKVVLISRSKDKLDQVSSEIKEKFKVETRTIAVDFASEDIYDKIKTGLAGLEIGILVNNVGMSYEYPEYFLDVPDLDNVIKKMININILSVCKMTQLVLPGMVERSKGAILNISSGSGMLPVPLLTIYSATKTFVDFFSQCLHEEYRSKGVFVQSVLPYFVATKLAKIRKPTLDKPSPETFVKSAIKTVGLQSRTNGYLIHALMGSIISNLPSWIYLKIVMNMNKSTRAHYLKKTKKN

[6] = molecular target: T4, 17-beta-hydroxysteroid dehydrogenase type 2 (Homo sapiens) (UniProt P37059); experiment: Inhibition of 17 beta-HSD2 (unknown origin) transfected in HEK293 cells using [14C]E2 as substrate at 1 uM; format: cell-based
T4 sequence (whole entry): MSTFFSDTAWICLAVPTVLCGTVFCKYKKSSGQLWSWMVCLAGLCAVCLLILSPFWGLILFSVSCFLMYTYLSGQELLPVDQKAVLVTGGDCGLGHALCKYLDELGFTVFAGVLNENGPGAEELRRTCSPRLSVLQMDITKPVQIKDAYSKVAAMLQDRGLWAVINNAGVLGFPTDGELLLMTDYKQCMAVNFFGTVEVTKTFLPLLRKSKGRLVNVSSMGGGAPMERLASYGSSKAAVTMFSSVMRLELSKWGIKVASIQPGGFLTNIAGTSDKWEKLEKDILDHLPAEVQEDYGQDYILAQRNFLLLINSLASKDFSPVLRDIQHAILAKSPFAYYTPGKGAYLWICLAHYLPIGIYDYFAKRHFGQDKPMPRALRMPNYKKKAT

[7] = molecular target: T4, 17-beta-hydroxysteroid dehydrogenase type 2 (Homo sapiens); experiment: Inhibition of 17 beta-HSD2 (unknown origin) transfected in HEK293 cells using [14C]E2 as substrate at 10 uM; format: cell-based

`CCCCCCN1C(=O)O[C@@H]2[C@@]3(C)CC[C@@H]4c5ccc(O)cc5CC[C@H]4[C@@H]3C[C@]2(O)[C@@H]1c1cccc(C(N)=O)c1` was tested, and the IC50 [1] was 6.6 µM, the inhibition [2] was “Active” and the Activity [3] was “Active”.
With `CCCCN1C(=O)O[C@H]2C(=C[C@H]3[C@@H]4CCc5cc(O)ccc5[C@H]4CC[C@]23C)[C@@H]1c1cccc(C(N)=O)c1` the Activity [4] was “inactive”, the inhibition [5] was “inactive” and the inhibition [6] was 10%. The inhibition [7] was 15%, the IC50 [1] was 1.4 µM and the inhibition [2] was “Active”. For the same compound, the Activity [3] was “inactive”.
`C[C@]12CC[C@@H]3c4ccc(O)cc4CC[C@H]3[C@@H]1CC[C@@H]2O` [ESTRADIOL] gave a growth at 0.1 µM ([4]; read-out: Activity) of 320% and a growth at 0.5 µM ([3]; read-out: Activity) of 380%.
With `CCN1C(=O)O[C@@H]2[C@@]3(C)CC[C@@H]4c5ccc(O)cc5CC[C@H]4[C@@H]3C[C@]2(O)[C@@H]1c1cccc(C(N)=O)c1` the inhibition [2] was “Active”.
In the case of `CCN1C(=O)O[C@H]2C(=C[C@H]3[C@@H]4CCc5cc(O)ccc5[C@H]4CC[C@]23C)[C@@H]1c1cccc(C(N)=O)c1`, the inhibition [2] is reported as “Active”.
For `CCCCCCCCN1C(=O)O[C@@H]2[C@@]3(C)CC[C@@H]4c5ccc(O)cc5CC[C@H]4[C@@H]3C[C@]2(O)[C@@H]1c1cccc(C(N)=O)c1`, the inhibition [2] was “Active”.
`CCCCCCCCN1C(=O)O[C@H]2C(=C[C@H]3[C@@H]4CCc5cc(O)ccc5[C@H]4CC[C@]23C)[C@@H]1c1cccc(C(N)=O)c1` was tested, and the inhibition [2] was “Active”.
With `CCCCCCN1C(=O)O[C@H]2C(=C[C@H]3[C@@H]4CCc5cc(O)ccc5[C@H]4CC[C@]23C)[C@@H]1c1cccc(C(N)=O)c1` the inhibition [2] was “Active”.
With `CCCCN1C(=O)O[C@@H]2[C@@]3(C)CC[C@@H]4c5ccc(O)cc5CC[C@H]4[C@@H]3C[C@]2(O)[C@@H]1c1cccc(C(N)=O)c1` the inhibition [2] was “Active”.
